According to ChEMBL document CHEMBL3991601, “The target landscape of clinical kinase drugs” (Science, 2017):
Activity calls are given as the source filed them. On the calls: in the data inactive means no Kd found up to 30 µM.

What was measured:
[1] = target: T1, Adenine phosphoribosyltransferase (Homo sapiens, UniProt P07741)
T1 sequence (P07741 whole entry): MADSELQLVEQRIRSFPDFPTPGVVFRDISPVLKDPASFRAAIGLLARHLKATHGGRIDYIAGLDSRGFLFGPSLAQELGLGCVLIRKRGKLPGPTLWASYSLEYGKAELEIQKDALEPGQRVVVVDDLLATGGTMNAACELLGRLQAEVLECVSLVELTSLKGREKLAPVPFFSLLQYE

[2] = target: T2, ATP-dependent RNA helicase DHX30 (Homo sapiens, UniProt Q7L2E3)
T2 sequence (Q7L2E3 whole entry): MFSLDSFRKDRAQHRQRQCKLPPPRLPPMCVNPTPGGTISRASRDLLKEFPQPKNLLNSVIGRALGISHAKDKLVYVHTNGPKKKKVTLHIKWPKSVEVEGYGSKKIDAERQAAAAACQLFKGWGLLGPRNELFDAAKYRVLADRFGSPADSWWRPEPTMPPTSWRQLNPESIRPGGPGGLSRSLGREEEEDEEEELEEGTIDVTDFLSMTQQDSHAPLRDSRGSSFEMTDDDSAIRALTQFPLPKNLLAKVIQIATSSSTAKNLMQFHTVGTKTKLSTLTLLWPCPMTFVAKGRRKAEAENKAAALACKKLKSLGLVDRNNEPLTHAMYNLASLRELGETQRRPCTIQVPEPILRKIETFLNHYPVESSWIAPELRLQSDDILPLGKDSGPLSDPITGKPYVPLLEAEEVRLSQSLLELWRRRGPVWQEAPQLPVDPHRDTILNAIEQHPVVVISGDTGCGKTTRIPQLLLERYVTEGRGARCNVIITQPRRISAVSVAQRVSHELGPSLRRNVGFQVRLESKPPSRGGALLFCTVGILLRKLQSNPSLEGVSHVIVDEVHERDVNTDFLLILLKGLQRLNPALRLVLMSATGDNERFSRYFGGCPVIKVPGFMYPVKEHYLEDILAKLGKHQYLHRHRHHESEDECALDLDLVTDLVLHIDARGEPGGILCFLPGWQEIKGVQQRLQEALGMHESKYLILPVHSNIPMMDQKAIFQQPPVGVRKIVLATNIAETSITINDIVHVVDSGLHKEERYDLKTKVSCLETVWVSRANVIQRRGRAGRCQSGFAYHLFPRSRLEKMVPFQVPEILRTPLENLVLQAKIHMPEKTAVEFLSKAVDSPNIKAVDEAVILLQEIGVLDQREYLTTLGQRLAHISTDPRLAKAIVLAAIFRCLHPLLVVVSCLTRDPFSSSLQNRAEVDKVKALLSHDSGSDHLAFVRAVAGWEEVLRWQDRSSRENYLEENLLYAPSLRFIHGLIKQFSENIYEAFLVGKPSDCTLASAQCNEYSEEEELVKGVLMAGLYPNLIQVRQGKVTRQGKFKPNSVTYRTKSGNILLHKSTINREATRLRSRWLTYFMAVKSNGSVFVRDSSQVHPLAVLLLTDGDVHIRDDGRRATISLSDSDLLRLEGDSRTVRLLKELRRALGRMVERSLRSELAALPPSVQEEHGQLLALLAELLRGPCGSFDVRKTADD

[3] = target: Serine/threonine-protein kinase N3 (Homo sapiens, UniProt Q6P5Z2)
Sequence of Serine/threonine-protein kinase N3 (Q6P5Z2 whole entry): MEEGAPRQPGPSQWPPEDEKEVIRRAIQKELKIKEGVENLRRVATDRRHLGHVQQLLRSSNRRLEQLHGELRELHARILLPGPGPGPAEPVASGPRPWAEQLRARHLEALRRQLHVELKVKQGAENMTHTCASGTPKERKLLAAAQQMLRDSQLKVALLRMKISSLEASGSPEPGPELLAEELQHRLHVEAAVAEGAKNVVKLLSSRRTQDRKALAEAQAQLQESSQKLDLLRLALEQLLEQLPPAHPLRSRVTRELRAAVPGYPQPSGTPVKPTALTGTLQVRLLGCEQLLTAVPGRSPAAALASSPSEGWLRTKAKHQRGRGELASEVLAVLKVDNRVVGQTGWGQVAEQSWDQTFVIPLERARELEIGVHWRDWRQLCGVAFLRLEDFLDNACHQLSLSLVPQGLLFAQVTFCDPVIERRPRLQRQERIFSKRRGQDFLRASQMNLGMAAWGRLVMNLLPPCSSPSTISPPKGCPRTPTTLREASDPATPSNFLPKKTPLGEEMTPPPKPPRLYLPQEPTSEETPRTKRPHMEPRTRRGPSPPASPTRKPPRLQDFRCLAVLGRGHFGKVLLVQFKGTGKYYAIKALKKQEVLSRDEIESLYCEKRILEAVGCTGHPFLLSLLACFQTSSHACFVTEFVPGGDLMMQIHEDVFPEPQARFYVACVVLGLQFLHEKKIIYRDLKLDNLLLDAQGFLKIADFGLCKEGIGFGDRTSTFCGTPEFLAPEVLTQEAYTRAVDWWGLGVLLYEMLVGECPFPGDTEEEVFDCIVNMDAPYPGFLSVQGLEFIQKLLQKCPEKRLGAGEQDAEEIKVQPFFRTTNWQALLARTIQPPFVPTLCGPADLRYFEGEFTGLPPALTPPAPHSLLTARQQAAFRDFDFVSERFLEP

[4] = target: Serine/threonine-protein kinase PLK1 (Homo sapiens, UniProt P53350)
Sequence of Serine/threonine-protein kinase PLK1 (P53350 whole entry): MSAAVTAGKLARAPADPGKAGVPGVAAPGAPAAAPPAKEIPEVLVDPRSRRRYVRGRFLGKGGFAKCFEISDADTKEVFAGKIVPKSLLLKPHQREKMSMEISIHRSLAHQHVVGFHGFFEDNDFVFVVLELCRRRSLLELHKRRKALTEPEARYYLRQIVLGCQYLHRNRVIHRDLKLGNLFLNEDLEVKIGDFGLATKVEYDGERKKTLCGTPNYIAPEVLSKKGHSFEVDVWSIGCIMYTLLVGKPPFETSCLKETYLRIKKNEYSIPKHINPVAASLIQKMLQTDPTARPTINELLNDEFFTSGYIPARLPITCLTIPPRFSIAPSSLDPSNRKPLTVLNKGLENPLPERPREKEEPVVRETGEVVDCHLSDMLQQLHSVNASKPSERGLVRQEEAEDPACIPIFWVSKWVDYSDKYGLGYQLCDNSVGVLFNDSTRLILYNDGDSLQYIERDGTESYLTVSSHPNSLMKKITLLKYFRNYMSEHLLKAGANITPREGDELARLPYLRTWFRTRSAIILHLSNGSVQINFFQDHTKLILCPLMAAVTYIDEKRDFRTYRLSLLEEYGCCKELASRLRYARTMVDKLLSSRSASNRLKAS

[5] = target: T3, Protein kinase C zeta type (Homo sapiens, UniProt Q05513)
T3 sequence (Q05513 whole entry): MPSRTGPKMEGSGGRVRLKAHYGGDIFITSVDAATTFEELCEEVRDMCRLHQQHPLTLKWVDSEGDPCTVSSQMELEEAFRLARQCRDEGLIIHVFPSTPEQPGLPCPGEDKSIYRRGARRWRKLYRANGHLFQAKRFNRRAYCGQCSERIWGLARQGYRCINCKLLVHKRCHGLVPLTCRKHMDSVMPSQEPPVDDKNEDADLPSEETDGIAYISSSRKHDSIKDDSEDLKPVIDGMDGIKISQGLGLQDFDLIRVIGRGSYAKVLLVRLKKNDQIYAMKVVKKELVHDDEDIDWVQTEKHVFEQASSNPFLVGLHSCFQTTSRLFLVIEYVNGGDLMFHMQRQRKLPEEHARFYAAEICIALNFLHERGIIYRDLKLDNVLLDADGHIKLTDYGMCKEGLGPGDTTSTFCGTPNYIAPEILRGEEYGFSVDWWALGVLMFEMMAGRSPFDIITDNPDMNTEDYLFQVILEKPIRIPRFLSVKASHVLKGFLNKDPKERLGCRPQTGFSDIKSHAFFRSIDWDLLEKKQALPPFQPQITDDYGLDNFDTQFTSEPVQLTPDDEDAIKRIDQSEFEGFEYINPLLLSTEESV

[6] = target: Phosphatidylethanolamine-binding protein 1 (Homo sapiens, UniProt P30086)
Sequence of Phosphatidylethanolamine-binding protein 1 (P30086 whole entry): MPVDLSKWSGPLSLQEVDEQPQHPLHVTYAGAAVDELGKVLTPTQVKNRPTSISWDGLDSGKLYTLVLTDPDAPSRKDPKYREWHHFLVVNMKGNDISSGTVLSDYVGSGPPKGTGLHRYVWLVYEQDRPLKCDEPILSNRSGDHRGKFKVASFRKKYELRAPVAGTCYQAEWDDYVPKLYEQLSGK

Kd [1]	Kd [2]	Kd [3]	Kd [4]	Kd [5]	Kd [6]	Structure (SMILES)
> 30 µM (inactive)	> 30 µM (inactive)	> 30 µM (inactive)	> 30 µM (inactive)	> 30 µM (inactive)	> 30 µM (inactive)	OCCn1cc(-c2cnc3nnn(Cc4ccc5ncccc5c4)c3n2)cn1 [PF-04217903]
> 30 µM (inactive)	> 30 µM (inactive)	> 30 µM (inactive)	> 30 µM (inactive)	> 30 µM (inactive)	> 30 µM (inactive)	Cn1cc(-c2ccc3nnc(C(F)(F)c4ccc5ncccc5c4)n3n2)cn1 [JNJ-38877605]
–	> 30 µM (inactive)	–	> 30 µM (inactive)	> 30 µM (inactive)	–	O=C1NC(=O)/C(=C/c2ccc3nccc(-c4ccncc4)c3c2)S1 [GSK-1059615]
> 30 µM (inactive)	> 30 µM (inactive)	> 30 µM (inactive)	> 30 µM (inactive)	> 30 µM (inactive)	> 30 µM (inactive)	O=C(Nc1ccc(-c2ccnc(Nc3ccc(N4CCOCC4)cc3)n2)cc1)C1CCCN1 (stereo not given) [XL-019]
> 30 µM (inactive)	> 30 µM (inactive)	> 30 µM (inactive)	> 30 µM (inactive)	> 30 µM (inactive)	–	COc1cc(CCc2cc(NC(=O)c3ccc(N4C[C@@H](C)N[C@@H](C)C4)cc3)n[nH]2)cc(OC)c1 [AZD-4547]
> 30 µM (inactive)	–	> 30 µM (inactive)	> 30 µM (inactive)	> 30 µM (inactive)	–	CN1CCC(CNc2ccc3ncc(-c4cccc(OC(F)(F)F)c4)n3n2)CC1 [SGI-1776]
> 30 µM (inactive)	> 30 µM (inactive)	> 30 µM (inactive)	> 30 µM (inactive)	> 30 µM (inactive)	> 30 µM (inactive)	Cc1cc([C@@H](C)Nc2ccccc2C(=O)O)c2nc(N3CCOCC3)cc(=O)n2c1 [AZD-6482]

Second part, the compound before the results:

Structure (SMILES)	Kd [1]	Kd [2]	Kd [3]	Kd [4]	Kd [5]	Kd [6]
Cc1cc(-c2cc(O)ccc2Cl)cc2nnc(Nc3ccc(OCCN4CCCC4)cc3)nc12	> 30 µM (inactive)	> 30 µM (inactive)	> 30 µM (inactive)	> 30 µM (inactive)	> 30 µM (inactive)	–
CC[C@H](Nc1ncnc2[nH]cnc12)c1nc2cccc(F)c2c(=O)n1-c1ccccc1 [IDELALISIB]	> 30 µM (inactive)	> 30 µM (inactive)	> 30 µM (inactive)	> 30 µM (inactive)	–	> 30 µM (inactive)
CC(=O)Nc1cccc(-n2c(=O)n(C3CC3)c(=O)c3c(Nc4ccc(I)cc4F)n(C)c(=O)c(C)c32)c1 [TRAMETINIB]	> 30 µM (inactive)	> 30 µM (inactive)	> 30 µM (inactive)	> 30 µM (inactive)	> 30 µM (inactive)	> 30 µM (inactive)
CO[C@H]1C[C@@H]2CC[C@@H](C)[C@@](O)(O2)C(=O)C(=O)N2CCCC[C@H]2C(=O)O[C@H]([C@H](C)C[C@@H]2CC[C@@H](OCCO)[C@H](OC)C2)CC(=O)[C@H](C)/C=C(\C)[C@@H](O)[C@@H](OC)C(=O)[C@H](C)C[C@H](C)/C=C/C=C/C=C/1C [EVEROLIMUS]	> 30 µM (inactive)	> 30 µM (inactive)	> 30 µM (inactive)	> 30 µM (inactive)	–	> 30 µM (inactive)
CN1CC[C@@H](c2c(O)cc(O)c3c(=O)cc(-c4ccccc4Cl)oc23)[C@@H]1CO	> 30 µM (inactive)	> 30 µM (inactive)	> 30 µM (inactive)	0.021 µM	–	> 30 µM (inactive)
Cc1ccc(S(=O)(=O)Nc2nc3ccccc3nc2Nc2ccc3nsnc3c2)cc1	–	> 30 µM (inactive)	> 30 µM (inactive)	> 30 µM (inactive)	> 30 µM (inactive)	–
CN1CCC(COc2cnc(-c3cccc(Cn4nc(-c5cccc(C#N)c5)ccc4=O)c3)nc2)CC1 [TEPOTINIB]	> 30 µM (inactive)	> 30 µM (inactive)	–	> 30 µM (inactive)	> 30 µM (inactive)	> 30 µM (inactive)
O=C(c1ccc(F)c(F)c1Nc1ccc(I)cc1F)N1CC(O)([C@@H]2CCCCN2)C1 [COBIMETINIB]	–	> 30 µM (inactive)	> 30 µM (inactive)	> 30 µM (inactive)	–	> 30 µM (inactive)
CNC(=O)c1cc(Oc2ccc(NC(=O)Nc3ccc(Cl)c(C(F)(F)F)c3)c(F)c2)ccn1 [REGORAFENIB]	> 30 µM (inactive)	> 30 µM (inactive)	> 30 µM (inactive)	> 30 µM (inactive)	–	> 30 µM (inactive)
COc1cc2nccc(Oc3ccc(NC(=O)Nc4cc(C)on4)c(Cl)c3)c2cc1OC [TIVOZANIB]	> 30 µM (inactive)	–	> 30 µM (inactive)	> 30 µM (inactive)	> 30 µM (inactive)	0.003 µM
Cc1ccc(NC(=O)c2ccc(CN3CC[C@H](N(C)C)C3)c(C(F)(F)F)c2)cc1Nc1nccc(-c2cncnc2)n1 [BAFETINIB]	> 30 µM (inactive)	–	> 30 µM (inactive)	> 30 µM (inactive)	> 30 µM (inactive)	> 30 µM (inactive)
CC[C@@H]1C(=O)N(C)c2cnc(Nc3ccc(C(=O)N[C@H]4CC[C@H](N5CCN(CC6CC6)CC5)CC4)cc3OC)nc2N1C(C)C [VOLASERTIB]	> 30 µM (inactive)	> 30 µM (inactive)	> 30 µM (inactive)	> 30 µM (inactive)	–	> 30 µM (inactive)
COCCNCc1ccc(-c2cc3nccc(Oc4ccc(NC(=S)NC(=O)Cc5ccc(F)cc5)cc4F)c3s2)nc1 [GLESATINIB]	> 30 µM (inactive)	> 30 µM (inactive)	> 30 µM (inactive)	> 30 µM (inactive)	> 30 µM (inactive)	> 30 µM (inactive)
CCn1c(=O)c(-c2cc[nH]n2)cc2c(C)nc(N)nc21 [VOXTALISIB]	> 30 µM (inactive)	–	–	> 30 µM (inactive)	> 30 µM (inactive)	> 30 µM (inactive)
Cc1ccc(-n2nc(C(C)(C)C)cc2NC(=O)NCc2cc(F)ccc2Oc2ccc3c(cnn3CCO)c2)cc1 [PEXMETINIB]	> 30 µM (inactive)	> 30 µM (inactive)	> 30 µM (inactive)	> 30 µM (inactive)	–	> 30 µM (inactive)
